The results in this text go back to patent US6136852A, “3,4-disubstituted phenylethanolaminotetralincarboxylic acid derivatives” (Kissei Pharmaceutical Co., Ltd., priority 1996, dated 2000).

Each structure is given as a SMILES string.

One series deals with β1 -adrenergic receptor. As to the kind of experiment: Action of drugs on the atrial contractions of isolated rat atrium (β1-adrenergic receptor stimulating activity). Type of series: cell-based. The settings on record: isolated SD male rat atrium, Magnus method. The procedure:
Thus, the compounds of the present invention have markedly weak β1 -adrenergic receptor stimulating effect in comparison with the aforementioned β2 -adrenergic receptor stimulating effect.
Action of Drugs on the Atrial Contractions of Isolated Atrium
The atria of SD male rats (350 to 400 g in body weight) were isolated and the experiment was conducted according to the Magnus method. The sample with a tension of 1 g was exposed to Krebs-Henseleit solution maintained at 37° C. and gassed with a mixture of 95% of oxygen and 5% of carbon dioxide. The atrial contraction was induced isometrically via a pressure transducer and recorded on a rectigram. After addition of the drug, its efficacy was evaluated as drug concentration that increased 20 beats per minute of heart rate (i.e., EC20 value).

Another series addresses T1, β2 -adrenergic receptor (Rattus norvegicus, UniProt P10608).
T1 construct: The uteri of pregnant SD rats (pregnancy day 21) were isolated; from tissue; host or cells: longitudinal uterine muscle strips of pregnant SD rats (day 21)
As to the kind of experiment: Action of drugs on the spontaneous contractions of isolated pregnant rat myometrium (β2-adrenergic receptor stimulating activity). The settings on record: isolated pregnant SD rat uterus (pregnancy day 21), Magnus method; read-out: EC50 value (activity to relax 50% of the spontaneous contractions of rat myometrium). Type of series: cell-based. The protocol: Thus, the compounds of the present invention have markedly potent β2 -adrenergic receptor stimulating effect and therefore are remarkably useful as β2 -adrenergic receptor stimulating agents.
Action of Drugs on the Spontaneous Contractions of Isolated Pregnant Rat Myometrium
The uteri of pregnant SD rats (pregnancy day 21) were isolated and longitudinal uterine muscle strips (about 15 mm in length and about 5 mm in width) free from the basal plate were prepared. The experiment was conducted according to the Magnus method. The sample with a tension of 1 g was exposed to Locke-Ringer solution maintained at 37° C. and gassed with a mixture of 95% of oxygen and 5% of carbon dioxide. The spontaneous contractions of the myometrium were induced isometrically via a pressure transducer and recorded on a rectigram. The drug efficacy was evaluated as 50% inhibitory drug concentration (i.e., EC50 value) by comparing the total degree of uterine contraction during 5 minutes before the addition of the drug with the total degree of uterine contraction during 5 minutes after the addition of the drug.

For a further series, the system named is female ICR mice. As to the kind of experiment: Acute toxicity test. Type of series: in vivo. The note with it: intravenous, 30 mg/kg in saline. The protocol: To 3 female ICR mice of 4 weeks age was administered intravenously ethyl 2-[(2S)-2-[[(2RS)-2-hydroxy-2-(4-hydroxy-3-hydroxymethylphenyl)ethyl]amino]-1,2,3,4-tetrahydronaphthalen-7-yloxy]acetate dissolved in saline at dose of 30 mg/kg.

T1 sequence (P10608 whole entry): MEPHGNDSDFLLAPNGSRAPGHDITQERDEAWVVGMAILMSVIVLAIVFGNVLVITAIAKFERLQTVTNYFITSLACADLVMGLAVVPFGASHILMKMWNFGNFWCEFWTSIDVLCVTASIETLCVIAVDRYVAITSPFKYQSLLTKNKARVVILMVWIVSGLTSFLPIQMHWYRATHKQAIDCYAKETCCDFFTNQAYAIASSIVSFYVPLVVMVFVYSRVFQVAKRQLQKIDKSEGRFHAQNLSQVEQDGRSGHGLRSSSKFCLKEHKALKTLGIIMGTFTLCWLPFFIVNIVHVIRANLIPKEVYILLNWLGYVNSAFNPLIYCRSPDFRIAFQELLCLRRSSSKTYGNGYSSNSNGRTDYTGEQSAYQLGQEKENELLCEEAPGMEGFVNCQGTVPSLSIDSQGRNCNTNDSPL

On to `CCOC(=O)COc1ccc2c(c1)C[C@@H](NCC(O)c1ccc(O)c(CO)c1)CC2` (mixture of isomers) [Compound 4, Ethyl 2-[(2S)-2-[[(2RS)-2-hydroxy-2-(4-hydroxy-3-hydroxymethylphenyl)ethyl]amino]-1,2,3,4-tetrahydronaphthalen-7-yloxy]acetate], for which the “EC20 value (concentration that increases 20 beats per minute of rat heart rate)” value in the series with β1 -adrenergic receptor is reported as 1.1×10^-6 mol concentration. Also, the EC50 (commonly the concentration giving half of the maximal effect) at β2 -adrenergic receptor amounted to 1.1 nM. Further, the “death of animals during 24 hours after the administration” value in the series on female ICR mice is on record as “No death of animals was observed”.
